According to US9309242B2, “Substituted pyrido[2,3-b]pyrazines as FGFR kinase inhibitors” (priority 2011, dated 2016):

Legend:
FGFR1 (h) = FGFR1 (h) (Homo sapiens, UniProt P11362); test: FGFR1 (enzymatic assay), TR-FRET; assay type: biochemical; conditions: read-out: FGFR 1 pIC50 (converted)
FGFR2 (h) = FGFR2 (h) (Homo sapiens, UniProt P21802); test: FGFR2 (enzymatic assay), TR-FRET; assay type: biochemical; conditions: enzymatic assay; read-out: FGFR 2 pIC50 (converted)
How it was run: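 At low ATP (0.4 μM), enzyme activity of human FGFR2 (150 ng/ml) toward biotinylated Flt3 substrate (500 nM) was followed with test compound present. Reactions ran in 50 mM HEPES pH 7.5, 6 mM MnCl2, 1 mM DTT, 0.1 mM Na3VO4, 0.01% Triton-X-100, 1% DMSO.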

FGFR3 (h) = FGFR3 (h) (Homo sapiens, UniProt P22607); test: FGFR3 (enzymatic assay), TR-FRET; assay type: biochemical; conditions: read-out: FGFR 3 pIC50 (converted)
Chain of FGFR3 (h) (P22607 23-806): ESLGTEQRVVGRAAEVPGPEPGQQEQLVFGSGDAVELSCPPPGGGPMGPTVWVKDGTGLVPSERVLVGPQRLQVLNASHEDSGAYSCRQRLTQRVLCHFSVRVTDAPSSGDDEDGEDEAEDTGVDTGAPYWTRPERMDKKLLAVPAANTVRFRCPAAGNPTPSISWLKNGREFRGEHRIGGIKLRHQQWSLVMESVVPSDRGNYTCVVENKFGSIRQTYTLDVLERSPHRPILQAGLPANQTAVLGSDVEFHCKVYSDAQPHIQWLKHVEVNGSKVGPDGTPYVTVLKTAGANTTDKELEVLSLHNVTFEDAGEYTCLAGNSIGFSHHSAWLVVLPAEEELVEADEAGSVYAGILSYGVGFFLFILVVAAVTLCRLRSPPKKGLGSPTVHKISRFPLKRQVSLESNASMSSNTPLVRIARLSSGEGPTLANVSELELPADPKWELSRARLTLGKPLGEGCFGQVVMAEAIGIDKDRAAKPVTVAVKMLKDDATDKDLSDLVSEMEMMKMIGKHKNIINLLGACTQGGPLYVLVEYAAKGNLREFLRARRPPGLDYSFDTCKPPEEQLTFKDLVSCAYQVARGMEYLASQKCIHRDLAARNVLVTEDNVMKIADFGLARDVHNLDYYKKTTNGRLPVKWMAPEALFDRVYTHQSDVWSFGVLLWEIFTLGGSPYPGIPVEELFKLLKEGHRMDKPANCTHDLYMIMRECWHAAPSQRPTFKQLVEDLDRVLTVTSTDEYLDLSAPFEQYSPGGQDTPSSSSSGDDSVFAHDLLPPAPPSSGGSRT
From the text: Time-Resolved Fluorescence Resonance Energy Transfer (TR-FRET) signal (ex340 nm.

[1] = biological target: T1, Ba/F3-FGFR1-transfected cells (Homo sapiens, UniProt P11362); test: Ba/F3-FGFR1 (minus IL3) cellular proliferation assay, Alamar Blue; assay type: cell-based
T1 construct: BAF3-FGFR1 (MIN IL3) pIC50; other: minus IL3
T1 sequence (P11362 whole entry, change not shown): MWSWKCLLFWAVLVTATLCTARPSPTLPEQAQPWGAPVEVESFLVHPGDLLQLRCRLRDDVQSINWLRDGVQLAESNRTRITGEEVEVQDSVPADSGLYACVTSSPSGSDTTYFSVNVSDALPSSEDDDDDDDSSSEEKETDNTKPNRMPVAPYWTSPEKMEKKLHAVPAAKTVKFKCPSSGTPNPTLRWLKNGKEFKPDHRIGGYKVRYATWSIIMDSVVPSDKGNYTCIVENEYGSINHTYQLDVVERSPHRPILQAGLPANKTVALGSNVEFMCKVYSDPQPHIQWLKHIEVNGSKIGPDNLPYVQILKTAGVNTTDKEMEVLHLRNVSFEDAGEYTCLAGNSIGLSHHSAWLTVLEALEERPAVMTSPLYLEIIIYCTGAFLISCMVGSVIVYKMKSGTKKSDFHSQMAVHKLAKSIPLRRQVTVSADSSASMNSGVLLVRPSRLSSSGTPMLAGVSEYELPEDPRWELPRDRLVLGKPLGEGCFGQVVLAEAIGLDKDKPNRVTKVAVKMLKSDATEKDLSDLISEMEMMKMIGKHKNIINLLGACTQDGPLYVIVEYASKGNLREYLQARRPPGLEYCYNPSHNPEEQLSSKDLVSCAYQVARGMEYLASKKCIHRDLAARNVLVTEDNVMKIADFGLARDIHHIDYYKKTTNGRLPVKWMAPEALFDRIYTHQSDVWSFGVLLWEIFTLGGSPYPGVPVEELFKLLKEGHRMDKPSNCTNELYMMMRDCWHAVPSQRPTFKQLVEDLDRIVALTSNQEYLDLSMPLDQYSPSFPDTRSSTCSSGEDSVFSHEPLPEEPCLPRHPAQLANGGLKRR
How it was run: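 Ba/F3-FGFR1 cells (20000 per well) were exposed to compound for 24 h at 37 °C in RPMI-1640 with 10% FBS. Alamar Blue (resazurin) was then added for 4 h, and fluorescence was read at ex 540/em 590 nm.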

[2] = system: Ba/F3-FGFR3-transfected cells; test: Ba/F3-FGFR3 (plus IL3) cellular proliferation assay, counterscreen with 10 ng/ml murine IL3; assay type: cell-based; conditions: plus IL3 (10 ng/ml murine IL3, counterscreen); read-out: BAF3-FGFR3 (PLUS IL3) pIC50 (converted)
How it was run: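 Ba/F3 cells transfected with FGFR3, 20000/well in phenol red-free RPMI-1640 with 10% FBS, exposed to compound for 24 h at 37 °C, 5% CO2. Alamar Blue (resazurin) added for 4 h more; fluorescence read at ex 540/em 590 nm. Counterscreen run the same way with 10 ng/ml murine IL3.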

[3] = biological target: T2, Ba/F3-KDR-transfected cells (Homo sapiens, UniProt P35968); test: Ba/F3-KDR (minus IL3) cellular proliferation assay, Alamar Blue; assay type: cell-based
T2 construct: BAF3-KDR (MIN IL3) pIC50; other: minus IL3
T2 sequence (P35968 whole entry, change not shown): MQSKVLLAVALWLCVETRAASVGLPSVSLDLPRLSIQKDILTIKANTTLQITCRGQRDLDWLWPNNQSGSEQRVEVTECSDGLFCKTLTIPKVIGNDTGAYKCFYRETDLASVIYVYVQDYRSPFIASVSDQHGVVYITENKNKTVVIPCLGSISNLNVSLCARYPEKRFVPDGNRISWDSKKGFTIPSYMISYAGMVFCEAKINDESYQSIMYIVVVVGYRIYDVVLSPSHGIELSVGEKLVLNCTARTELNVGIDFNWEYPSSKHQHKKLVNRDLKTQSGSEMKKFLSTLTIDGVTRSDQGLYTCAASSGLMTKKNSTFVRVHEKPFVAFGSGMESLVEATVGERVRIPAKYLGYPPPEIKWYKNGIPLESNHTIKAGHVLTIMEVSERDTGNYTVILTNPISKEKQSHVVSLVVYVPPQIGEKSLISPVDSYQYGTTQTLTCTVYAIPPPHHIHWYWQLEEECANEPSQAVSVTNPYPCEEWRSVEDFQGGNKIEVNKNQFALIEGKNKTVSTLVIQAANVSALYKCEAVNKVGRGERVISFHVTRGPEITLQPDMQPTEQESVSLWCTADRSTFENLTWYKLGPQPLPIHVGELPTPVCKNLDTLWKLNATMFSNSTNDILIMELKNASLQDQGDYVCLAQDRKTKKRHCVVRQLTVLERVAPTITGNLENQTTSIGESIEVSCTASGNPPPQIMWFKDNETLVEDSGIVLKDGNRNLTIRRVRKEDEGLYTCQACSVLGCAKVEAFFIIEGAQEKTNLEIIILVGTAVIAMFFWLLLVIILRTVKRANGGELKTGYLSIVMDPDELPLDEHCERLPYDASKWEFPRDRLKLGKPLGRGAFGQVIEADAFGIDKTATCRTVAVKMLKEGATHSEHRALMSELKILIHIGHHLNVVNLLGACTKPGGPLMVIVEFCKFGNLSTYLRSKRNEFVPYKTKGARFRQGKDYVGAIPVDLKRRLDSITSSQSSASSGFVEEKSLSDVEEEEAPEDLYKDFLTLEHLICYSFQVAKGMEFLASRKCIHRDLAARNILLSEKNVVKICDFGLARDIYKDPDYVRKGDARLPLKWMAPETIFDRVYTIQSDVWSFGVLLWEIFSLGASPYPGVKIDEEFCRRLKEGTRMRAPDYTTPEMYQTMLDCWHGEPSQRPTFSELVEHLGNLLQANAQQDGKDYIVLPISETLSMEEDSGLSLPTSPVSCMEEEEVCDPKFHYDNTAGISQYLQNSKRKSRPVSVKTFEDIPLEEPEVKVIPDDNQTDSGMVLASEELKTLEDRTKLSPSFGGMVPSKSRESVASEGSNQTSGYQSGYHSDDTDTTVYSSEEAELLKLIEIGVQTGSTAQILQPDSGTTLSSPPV
How it was run: (§1)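 Compound in DMSO was dispensed first, then transfected cells in serum-containing RPMI-1640 were added. After a 24 h incubation, viability was gauged by resazurin reduction over 4 h, measured as fluorescence.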

[4] = system: Ba/F3-KDR-transfected cells; test: Ba/F3-KDR (plus IL3) cellular proliferation assay, counterscreen with 10 ng/ml murine IL3; assay type: cell-based; conditions: plus IL3 (10 ng/ml murine IL3, counterscreen); read-out: BAF3-KDR (PLUS IL3) pIC50 (converted)
How it was run: as §1

[5] = biological target: Ba/F3-FGFR4-transfected cells (Homo sapiens, UniProt P22455); test: Ba/F3-FGFR4 cellular proliferation assay, Alamar Blue; assay type: cell-based
Chain of Ba/F3-FGFR4-transfected cells (P22455 whole entry, change not shown): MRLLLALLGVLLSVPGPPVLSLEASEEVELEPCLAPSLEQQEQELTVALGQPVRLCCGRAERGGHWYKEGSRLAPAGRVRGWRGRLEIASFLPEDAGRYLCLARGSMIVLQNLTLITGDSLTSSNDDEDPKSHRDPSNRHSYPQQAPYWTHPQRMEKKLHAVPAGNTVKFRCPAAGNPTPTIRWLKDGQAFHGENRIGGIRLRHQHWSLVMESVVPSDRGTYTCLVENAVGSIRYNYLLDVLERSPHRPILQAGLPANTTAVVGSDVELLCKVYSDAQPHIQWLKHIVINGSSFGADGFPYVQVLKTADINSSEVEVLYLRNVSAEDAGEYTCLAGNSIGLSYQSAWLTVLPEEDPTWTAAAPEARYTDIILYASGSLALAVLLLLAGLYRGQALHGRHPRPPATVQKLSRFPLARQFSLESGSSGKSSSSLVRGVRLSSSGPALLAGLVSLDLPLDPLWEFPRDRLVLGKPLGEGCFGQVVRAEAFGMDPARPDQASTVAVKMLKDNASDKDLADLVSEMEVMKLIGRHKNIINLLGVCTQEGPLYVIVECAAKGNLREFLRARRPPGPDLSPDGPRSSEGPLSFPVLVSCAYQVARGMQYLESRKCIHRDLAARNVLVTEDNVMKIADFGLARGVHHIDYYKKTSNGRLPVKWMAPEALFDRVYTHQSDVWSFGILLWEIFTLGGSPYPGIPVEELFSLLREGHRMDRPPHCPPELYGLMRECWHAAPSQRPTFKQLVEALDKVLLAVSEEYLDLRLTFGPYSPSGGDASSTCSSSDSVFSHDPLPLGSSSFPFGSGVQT
How it was run: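 Step one: compound dilutions in DMSO are sprayed into wells. Step two: transfected Ba/F3-FGFR4 cells are added at 20000 per well and incubated 24 hours at 37° C. Step three: Alamar Blue is added for 4 hours and relative fluorescence is measured.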

Chain of FGFR2 (h) (P21802 22-821): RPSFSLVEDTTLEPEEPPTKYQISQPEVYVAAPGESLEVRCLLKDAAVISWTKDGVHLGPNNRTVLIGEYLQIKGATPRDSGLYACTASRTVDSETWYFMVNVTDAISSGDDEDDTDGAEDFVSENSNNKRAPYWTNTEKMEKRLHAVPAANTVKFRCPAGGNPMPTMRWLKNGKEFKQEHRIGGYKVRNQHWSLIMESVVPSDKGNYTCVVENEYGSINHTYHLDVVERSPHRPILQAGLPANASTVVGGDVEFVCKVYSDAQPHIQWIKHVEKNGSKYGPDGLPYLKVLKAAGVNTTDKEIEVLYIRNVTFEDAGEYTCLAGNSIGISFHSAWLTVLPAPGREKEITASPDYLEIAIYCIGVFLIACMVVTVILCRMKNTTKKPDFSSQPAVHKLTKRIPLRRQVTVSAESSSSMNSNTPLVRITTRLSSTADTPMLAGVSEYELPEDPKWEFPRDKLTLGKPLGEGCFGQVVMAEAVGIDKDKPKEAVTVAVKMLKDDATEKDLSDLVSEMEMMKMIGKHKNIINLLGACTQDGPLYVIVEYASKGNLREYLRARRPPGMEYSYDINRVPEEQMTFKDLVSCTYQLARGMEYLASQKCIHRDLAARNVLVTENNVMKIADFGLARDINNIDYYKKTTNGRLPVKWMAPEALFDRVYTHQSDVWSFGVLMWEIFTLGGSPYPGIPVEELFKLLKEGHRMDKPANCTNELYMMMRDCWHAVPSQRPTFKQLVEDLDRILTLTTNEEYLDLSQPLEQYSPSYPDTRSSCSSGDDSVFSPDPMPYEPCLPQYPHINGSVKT

Structure (SMILES)	IC50 (FGFR1 (h)) [nM]	IC50 (FGFR2 (h)) [nM]	IC50 (FGFR3 (h)) [nM]	BAF3-FGFR1 (MIN IL3) pIC50 [1]	IC50 [2] [nM]	BAF3-KDR (MIN IL3) pIC50 [3]	IC50 [4] [nM]	BAF3-FGFR4 pIC50 [5]
COc1cc(/N=c2\ccc3ncc(-c4cnn(C)c4)nc3n2CC2CC(O)C(=O)N2)c(F)c(OC)c1 (stereo not shown) [Compound 270]	0.776	2.09	1.1	7.12	> 10000	5.56	> 10000	6.40
COc1cc(OC)cc(N(CC2CC(O)C(=O)N2)c2ccc3ncc(-c4cnn(C)c4)nc3n2)c1 (stereo not shown) [Compound 271]	4.57	3.98	2.45	6.02	> 10000	<5	> 10000	5.80
COc1cc(/N=c2\ccc3ncc(-c4cnn(C)c4)nc3n2CC2CC(O)C(=O)N2)cc(OC)c1 (stereo not shown) [Compound 272]	0.977	2.57	1.45	6.54	> 10000	5.68	> 10000	5.97
COc1cc(OC)c(C)c(N(Cc2ncc[nH]2)c2ccc3ncc(-c4cnn(C)c4)nc3n2)c1 [Compound 273]	1.15	3.8	3.16	8.44	> 10000	6.44	> 10000	7.60
COc1cc(OC)cc(N(CCS(C)(=O)=O)c2ccc3ncc(-c4cnn(CCS(C)(=O)=O)c4)nc3n2)c1 [Compound 275]	5.89	3.47	3.39	5.64	> 10000	<5	> 10000	5.13
COc1cc(OC)cc(N(CC(C)(C)O)c2ccc3ncc(-c4cnn(C)c4)nc3n2)c1 [Compound 276]	14.5	9.12	8.32	6.28	> 10000	5.02	> 10000	5.82
COc1cc(/N=c2\ccc3ncc(-c4cnn(C)c4)nc3n2CC(C)(C)O)cc(OC)c1 [Compound 277]	0.871	2.09	1.07	6.91	> 10000	5.49	> 10000	6.37
COc1cc(OC)c(F)c(N(CC(C)(C)O)c2ccc3ncc(-c4cnn(C)c4)nc3n2)c1F [Compound 278]	1.62	4.17	2.95	7.45	> 10000	5.92	> 10000	7.11
COc1cc(OC)cc(N(c2ccc3ncc(-c4cnn(C)c4)nc3n2)C(C)c2ncc[nH]2)c1 (stereo not shown) [Compound 280]	0.851	2.04	1.86	8.64	> 10000	6.03	> 10000	7.97
COc1cc(OC)cc(N(Cc2nnc(NCCO)o2)c2ccc3ncc(-c4cnn(C)c4)nc3n2)c1 [Compound 282]	33.1	19.1	25.7	<5	> 10000	<5	> 10000	<5
COc1cc(OC)c(F)c(N(CC2CCC(=O)N2)c2ccc3ncc(-c4cnn(CC(C)(C)O)c4)nc3n2)c1 (stereo not shown) [Compound 285]	2.34	4.07	2.75	6.38	> 10000	5.36	> 10000	6.12
COc1cc(/N=c2\ccc3ncc(-c4cnn(CC(C)(C)O)c4)nc3n2CC2CCC(=O)N2)c(F)c(OC)c1 (stereo not shown) [Compound 286]	~1.55	2.04	1.35	7.07	> 10000	6.23	> 10000	6.69
COc1cc(OC)c(F)c(N(c2ccc3ncc(-c4cnn(C)c4)nc3n2)C(C)c2ncc[nH]2)c1 (stereo not shown) [Compound 287]	0.851	3.09	2.14	8.87	> 10000	6.62	> 10000	8.08
CNCCn1ccnc1CN(c1ccc2ncc(-c3cnn(C)c3)nc2n1)c1cc(OC)cc(OC)c1F [Compound 289]	4.37	8.51	12.9	6.66	> 10000	5.28	> 10000	6.07
COc1cc(OC)cc(N(CCNC2COC2)c2ccc3ncc(-c4cnn(C)c4)nc3n2)c1 [Compound 290]	3.55	4.47	4.47	7.09	> 10000	5.81	> 10000	6.32
COc1cc(OC)c(F)c(N(Cc2ncc[nH]2)c2ccc3ncc(N4CCOCC4)nc3n2)c1 [Compound 291]	0.871	1.55	1.2	8.03	> 10000	5.68	> 10000	7.08
COc1cc(OC)cc(N(Cc2ncc[nH]2)c2ccc3ncc(N4CCOCC4)nc3n2)c1 [Compound 293]	1.62	1.82	1.58	7.59	> 10000	5.31	> 10000	6.82
COc1cc(OC)c(F)c(N(Cc2ncc[nH]2)c2ccc3ncc(-c4cnn(CCCN)c4)nc3n2)c1 [Compound 295]	0.562	1.74	1.29	8.47	> 10000	6.45	> 10000	7.61
COc1cc(OC)c(F)c(N(Cc2noc(C)n2)c2ccc3ncc(-c4cnn(C)c4)nc3n2)c1 [Compound 297]	0.794	1.78	1.7	7.70	> 10000	6.08	> 10000	6.99
COc1cc(OC)c(F)c(N(CC2CCC(=O)N2)c2ccc3ncc(-c4cnn(C5CNC5)c4)nc3n2)c1 (stereo not shown) [Compound 299]	1.78	4.68	3.55	6.05	> 10000	<5	> 10000	5.32
